According to patent US20020010333A1, “Use of xanthine derivatives for reducing the pathological hyperreactivity of eosinophilic granulocytes, novel xanthine compounds and process for their preparation” (Hoechst Aktiengesellschaft, priority 1994, published 2002):
Values after ≈ are worked out from the molar mass of the structure shown. Read-outs that look alike come from different tables or passages of the source.

How the values were obtained:
[1] = system: ovalbumin-induced asthma attack; test: Inhibition of the antigen-induced early-phase reaction (ovalbumin-induced bronchospasm, Konzett-Rössler) in the presensitized guinea pig; type: in vivo, albino guinea pigs; conditions: Cavia porcellus, iv, protected = asthma reaction reduced by at least 40% relative to control; for responders at 10 mg/kg: 10 mg/kg i.v. 15 minutes before antigen; for responders at 25 mg/kg: 25 mg/kg i.v. 15 minutes before antigen
Method: Albino guinea pigs of both sexes having a body weight of 180 to 220 g were sensitized on two successive days by subcutaneous administration of 1 mg of ovalbumin (0.1% strength dissolved in physiological saline solution) in each case. 20 days later, the experiment was carried out according to the method of Konzett and […] (Arch. exp. Path. und Pharmak. (1940) 195: 75). For this purpose, the animals were anesthetized with pentobarbital, artificially ventilated, treated with alcuronium chloride to exclude spontaneous respiration and divided into groups of 6 animals in each case. By means of intravenous administration of ovalbumin as an antigen in a dose of 1 mg/kg, a long-lasting asthma attack was induced as a result of an acute bronchospasm induced by mediators in the course of the asthmatic early reaction, the intensity of which was quantified by means of the contraction height in the thoracogram. The test preparations were likewise administered intravenously 15 minutes before antigen provocation. Instead of this, the animals of the control group received pure 0.9% strength saline solution. To assess the action of the preparation, the number of animals of the respective collective in which the asthma reaction was reduced by at least 40% relative to the control animals was determined.

[2] = system: PAF-induced contraction of isolated lung strips; test: Anticonstrictive action against PAF-induced contraction of isolated lung strips; set-up: species or system albino guinea pigs; conditions: Cavia porcellus; guinea pig lung strips, PAF 10^−9 g/ml, n=6; read-out: Anticonstrictive action (IC50) PAT lung
From the text: (§1) The inhibitory action of the compounds of formula I on the proinflammatory early-phase mediators histamine, PAF and leukotriene D4 (LTD4) was investigated on isolated segments of the respiratory tract organs of albino guinea pigs, the inhibition of the contractions which can be caused by these mediators being used as measurement parameters.
(§2) To carry out the experiment, freshly prepared organs of male animals were used in each case. The trachea was divided into its rings, of which 5 tracheal rings in each case were linked with silk thread to give a chain, suspended under a tension of 0.5 g in an organ bath containing Tyrode solution at 37° C. through which was bubbled 95% O2/5% CO2, and contracted by addition of histamine dihydrochloride (bath concentration: 3×10^−7 g/ml) in the absence (control experiment) or in the presence of the test substances.
(§3) The lungs were cut longitudinally into 2 to 3 strips, using which the process as described above was carried out. The tension, however, was 1 g and the contraction was induced by PAF or LTD4 at a bath concentration of 10^−9 or 10^−8 g/mi.
(§4) Each experiment comprised the parallel investigation of 6 organ preparations (n=6).
(§5) The assessment of the action of the preparation was carried out with the aid of the IC50 values, which represent that concentration in μg/ml at which the organ contraction produced in the control experiment was reduced by half.

[3] = system: histamine-induced contraction of isolated trachea; test: Anticonstrictive action against histamine-induced contraction of isolated tracheal ring chains; set-up: species or system albino guinea pigs; conditions: Cavia porcellus; guinea pig tracheal chain, histamine dihydrochloride 3×10^−7 g/ml, n=6
From the text: as §1, §2, §4, §5

[4] = system: LTD4-induced contraction of isolated lung strips; test: Anticonstrictive action against LTD4-induced contraction of isolated lung strips; set-up: species or system albino guinea pigs; conditions: Cavia porcellus; guinea pig lung strips, LTD4 10^−8 g/ml, n=6
From the text: as §1, §2, §3, §4, §5

[5] = system: eosinophilic granulocytes; test: Antigen-induced late-phase reaction: ex vivo chemotactic migration of eosinophils (Boyden chamber technique); type: in vivo, guinea pigs; conditions: eosinophils of animals treated with 80 mg/kg daily oral, compared with control animals, p<0.05
Method: (§6) In a chronic long-term experiment on guinea pigs provoked with human serum antigen, the inhibitory action of the compounds of the formula I on the pathologically raised chemotactic infiltration of eosinophilic granulocytes into the peritoneal space (in vivo) and their functional state (ex vivo) was investigated. The animals of the preparation group (n=6) were treated with the test substance at a daily oral dose of 80 mg/kg for 15 weeks, while the animals of the control group (n=6) received the vehicle (carboxymethylcellulose). After the third week of treatment, all 12 animals were provoked by weekly intraperitoneal administration of 1 ml of human serum antigen and 48 hours later in each case subjected to a peritoneal lavage with 50 ml of 5% strength glucose solution in which the number of infiltrated eosinophils and, after their isolation on discontinuous Percoll density gradients (purity >95%; V ability >98%), the reactivity to PAF and C5a were determined in a comparison between the two animal collectives by flow cytometry with the aid of actin polymerization and by means of the Boyden chamber technique.

[6] = system: human eosinophilic granulocytes; test: Inhibition of eosinophil activation by late-phase mediators, lucigenin-dependent chemiluminescence; type: cell-based; conditions: 0.5 h, test substance 100 μM, human eosinophils, CL over 30 minutes
From the text: The inhibitory action of the xanthines of formula I on the activation ability of human eosinophilic granulocytes by means of the late-phase mediators IL-5, GM-CSF, C5a and PAF was investigated with the aid of the lucigenin-dependent chemiluminescence (CL) reaction.
For this purpose, purified eosinophils were obtained from venous human blood according to known processes (Arch. Dermatol. Res. (1987) 279: 470-477 and J. Invest. Dermatol. (1986) 86: 523-528), pretreated with the test substances at the concentration 100 μM or with pure water (positive control (A)) at 37° C. for 10 minutes and then activated with IL-5 (10^2 U/ml), GM-CSF (10^3 U/ml), C5a (10^−7 M) or PAF (10^−6 M) or treated with water for the determination of the basal activity (B). The CL reaction was monitored over the course of 30 minutes measuring at 37° C. The residual activity of the cells pretreated with the test substances was calculated according to the following formula in percent of that of the positive control: [formula]
CLX describes the activity after stimulation of the cells pretreated with the xanthines,
CLA describes the activity after stimulation of the cells pretreated with water and
CLB describes the basal activity of unstimulated cells pretreated with water.

[7] = system: eosinophilic granulocytes; test: Antigen-induced late-phase reaction: ex vivo actin polymerization of eosinophils (flow cytometry); type: in vivo, guinea pigs; conditions: PAF 10 nM, eosinophils of animals treated with 80 mg/kg daily oral
Method: as §6

[8] = system: eosinophilic granulocytes infiltrating the peritoneal space; test: Antigen-induced late-phase reaction: infiltration of eosinophilic granulocytes into the peritoneal space (in vivo); set-up: species or system guinea pigs; conditions: 80 mg/kg daily oral for 15 weeks, human serum antigen i.p. weekly, peritoneal lavage 48 hours later; control animals 42.2 5.8%; p<0.01
Method: as §6

[9] = read-out: Protected animals after i.v. administration, % proportion
[10] = read-out: Protected animals after i.v. administration, number (converted)
[11] = C5a 10^−7 M, read-out: Residual activity in % of the positive control A after stimulation with C5a
[12] = GM-CSF 10^3 U/ml, read-out: Residual activity in % of the positive control A after stimulation with GM-CSF
[13] = IL-5 10^2 U/ml, read-out: Residual activity in % of the positive control A after stimulation with IL-5
[14] = PAF 10^−6 M, read-out: Residual activity in % of the positive control A after stimulation with PAF

Compound | melting point [°C] | responders at 10 mg/kg [1, 9] [%] | responders at 10 mg/kg [1, 10] [%] | responders at 25 mg/kg [1, 9] [%] | responders at 25 mg/kg [1, 10] [%] | IC50 [2] [µg/mL] | IC50 [3] [µg/mL] | IC50 [4] [µg/mL] | Chemotactic migration of eosinophils induced by C5a [5] | Chemotactic migration of eosinophils induced by PAF [5] | activity at 100 µM [6, 11] [%] | activity at 100 µM [6, 12] [%] | activity at 100 µM [6, 13] [%] | activity at 100 µM [6, 14] [%] | Initial phase (<10s) of actin polymerization induced by PAF [7] | Number of eosinophils which migrated into the peritoneal space [8] [%]
Cn1c(=O)n(CC(C)(C)O)c(=O)c2[nH]cnc21 [Example 1, 1-(2-Hydroxy-2-methylpropyl)-3-methylxanthine] | 215 to 217 | – | – | – | – | – | – | – | – | – | – | – | – | – | – | –
CCn1c(=O)n(CC(C)(C)O)c(=O)c2[nH]cnc21 [Example 2, 3-Ethyl-1-(2-hydroxy-2-methylpropyl)xanthine] | – | 33 | 33.3 | 67 | 66.7 | – | – | – | – | – | – | – | – | – | – | –
Cn1c(=O)n(CCC(C)(C)O)c(=O)c2[nH]cnc21 [Example 3, 1-(3-Hydroxy-3-methylbutyl)-3-methylxanthine] | 203 to 205 | – | – | – | – | – | – | – | – | – | – | – | – | – | – | –
CCn1c(=O)n(CCC(C)(C)O)c(=O)c2[nH]cnc21 [Example 4, 3-Ethyl-1-(3-hydroxy-3-methylbutyl)xanthine] | 241 to 243 | 17 | 16.7 | 50 | 50 | 1 to 3 (≈ 3.76 to 11.3 µM) | 10 (≈ 37.6 µM) | – | – | – | – | – | – | – | – | –
Cn1c(=O)n(CCCC(C)(C)O)c(=O)c2[nH]cnc21 [Example 5, 1-(4-hydroxy-4-methylpentyl)-3-methylxanthine] | 188 to 189 | – | – | – | – | 3 (≈ 11.3 µM) | 30 (≈ 113 µM) | 10 (≈ 37.6 µM) | – | – | – | – | – | – | – | –
CCn1c(=O)n(CCCC(C)(C)O)c(=O)c2[nH]cnc21 [Example 6, 3-Ethyl-1-(4-hydroxy-4-methylpentyl)xanthine] | 214 to 216 | – | – | – | – | 3 (≈ 10.7 µM) | 30 (≈ 107 µM) | 1 to 3 (≈ 3.57 to 10.7 µM) | – | – | – | – | – | – | – | –
Cn1c(=O)n(CCCCC(C)(C)O)c(=O)c2[nH]cnc21 [Example 7, 1-(5-Hydroxy-5-methylhexyl)-3-methylxanthine] | 192 to 193 | 33 | 33.3 | 80 | 80 | 10 to 30 (≈ 35.7 to 107 µM) | 10 to 30 (≈ 35.7 to 107 µM) | 10 to 30 (≈ 35.7 to 107 µM) | significant reduction | significant reduction | 19 | 63 | 42 | 17 | significantly decreased | 34.9
Cn1c(=O)n(CCCCC(C)(O)CO)c(=O)c2[nH]cnc21 (stereo not shown) [Example 8, 1-(5,6-Dihydroxy-5-methylhexyl)-3-methylxanthine] | 181 to 182 | 50 | 50 | 50 | 50 | 6 (≈ 20.2 µM) | 10 to 30 (≈ 33.7 to 101 µM) | 10 (≈ 33.7 µM) | – | – | – | – | – | – | – | –
CCC(C)(O)CCCCn1c(=O)c2[nH]cnc2n(C)c1=O (stereo not shown) [Example 9, 1-(5-Hydroxy-5-methylheptyl)-3-methylxanthine] | 169 to 170 | 67 | 66.7 | 83 | 83.3 | 10 (≈ 34 µM) | 10 to 30 (≈ 34 to 102 µM) | 10 to 30 (≈ 34 to 102 µM) | – | – | – | – | – | – | – | –
CCn1c(=O)n(CCCCC(C)(C)O)c(=O)c2[nH]cnc21 [Example 10, 3-Ethyl-1-(5-hydroxy-5-methylhexyl)xanthine] | 180 to 182 | – | – | – | – | – | – | – | – | – | – | – | – | – | – | –
CCn1c(=O)n(CCCCC(C)(O)CC)c(=O)c2[nH]cnc21 (stereo not shown) [Example 11, 3-Ethyl-1-(5-hydroxy-5-methylheptyl)xanthine] | 165 to 166 | – | – | – | – | – | – | – | – | – | – | – | – | – | – | –
Cn1c(=O)n(CCCCCC(C)(C)O)c(=O)c2[nH]cnc21 [Example 12, 1-(6-Hydroxy-6-methylheptyl)-3-methylxanthine] | 166 to 167 | 50 | 50 | 67 | 66.7 | 3 to 6 (≈ 10.2 to 20.4 µM) | 3 to 10 (≈ 10.2 to 34 µM) | 6 to 10 (≈ 20.4 to 34 µM) | – | – | – | – | – | – | – | –
CCn1c(=O)n(CCCCCC(C)(C)O)c(=O)c2[nH]cnc21 [Example 13, 3-Ethyl-1-(6-hydroxy-6-methylheptyl)xanthine] | 163 to 165 | – | – | – | – | 1 (≈ 3.24 µM) | 10 to 30 (≈ 32.4 to 97.3 µM) | – | – | – | – | – | – | – | – | –
CC(=O)CCCCn1c(=O)c2c(ncn2C)n(C)c1=O [Pentoxifylline, 3,7-dimethyl-1-(5-oxohexyl)xanthine, reference compound] | – | 17 | 16.7 | 33 | 33.3 | 3 (≈ 10.8 µM) | 30 to 60 (≈ 108 to 216 µM) | 30 to 60 (≈ 108 to 216 µM) | – | – | 56 | 70 | 57 | 45 | – | –
CCOCn1cnc2c1c(=O)n(CCCCC(C)(C)O)c(=O)n2C [Torbafylline, 7-ethoxymethyl-1-(5-hydroxy-5-methylhexyl)-3-methylxanthine, reference compound] | – | 0 | 0 | 0 | 0 | 3 to 6 (≈ 8.87 to 17.7 µM) | 60 (≈ 177 µM) | 10 to 30 (≈ 29.6 to 88.7 µM) | – | – | 51 | 125 | 58 | 58 | – | –
